Series [1] in a line: Ocular tissue distribution and systemic concentrations of radioactivity after topical ocular administration. It counts as in vivo, Dutch belted (pigmented) rabbits. Here is the method: The ocular tissue distribution and systemic concentrations of radioactivity were assessed following topical ocular administration of pazopanib to Dutch belted (pigmented) rabbits. A single 60-μL at a target dose of 0.3 mg/dose (30 μCi/dose) was administered to the right eye. Blood and ocular tissues from both the dosed and non-dosed (left) eye were collected from one animal at each of eight sampling times up to 24 h, and analyzed for total radioactivity.

The test system of another series is CNV lesions. The series is described as follows: Histology (HE) of CNV lesion area on post-laser day 14. It counts as in vivo, Brown Norway rats. As for the experimental part: (§1) Male Brown Norway rats (10-12 weeks of age, […] weighing 170 to 360 g) were used throughout this study. The animals were treated according to ARVO Statement on the use of animals in ophthalmic and vision research, and all animal experiments were reviewed and approved by municipal and University Hospital animal care committees in Leipzig. The rats were anesthetized with intraperitoneal ketamine (100 mg/kg; Ratiopharm, Ulm, Germany) and xylazine (BayerVital, Leverkusen, Germany; 10 mg/kg). Topical application of tropicamide (5 mg/ml) and phenylephrine hydrochloride (Ankerpharm, Rudolstadt, Germany; 50 mg/ml) were instilled for mydriasis during laser photocoagulation and fluorescein angiography. Fourteen days after laser injury, rats were humanely euthanized using overdoses of carbon dioxide.
(§2) Animals were treated using laser photocoagulation-induced rupture of Bruch's membrane using a 545 nm dye laser (Coherent Argon Dye Laser #920, Coherent Medical Laser, Palo Alto, Calif.) attached to a slit lamp (Carl Zeiss, Oberkochen, Germany). A contact lens was used to retain corneal clarity through photocoagulation. The laser spots were placed separately using the following settings; 50-μm diameter, 0.1 second duration, and 180-mW intensity. To rupture Bruch's membrane, four to seven laser spots were applied between the major retinal vessels close to the optic disc. Pazopanib (approximately 30 μl of a 5 mg/ml sterile-filtered solution) was administered twice daily. Animals of the control group received a vehicle only.
After the rats were euthanized on day 14, eyes were immediately dissected and fixed with 4% paraformaldehyde (dissolved in PBS). […] Three to five serial sections from each CNV membrane were measured, and the highest value (representing the top of a given CNV complex) was stored. Digitized images were analyzed and measured with the concomitant image-analysis software (Axiovision; Carl Zeiss). Each lesion was encircled manually, and their area (in μm^2) was calculated by the program.

The nature of series [2]: Plasma and ocular tissue drug concentration after topical eye drops. It counts as in vivo, Norway Brown rats. The note with it: for concentration at 5 hours after third drop: female, Norway Brown, rat, topical, 30 μl (5 mg/ml) per drop, three drops over 24 hours, 30 μl drops to left eye only, three times over 24 hours. As for the experimental part:
Female Norway Brown rats were used during these studies. Rats were purchased from Charles River (Portage, Mich.). […]
Rats were euthanized by CO2 inhalation before enucleation and collection of plasma samples. Samples were frozen immediately over dry ice after collection and then stored at −80° C. The ocular tissues were processed through a dissection-pulverization-drug extraction process. Frozen eye sectioning was performed by the following steps. The preparation of rat eye cups was done by removing the anterior portion of the eye with a razor blade followed by removal of the lens and frozen vitreous with forceps. A sagittal section was made in the eye cup before collection of the retina/choroid tissue by scraping the exposed sclera with the round end of a spatula until the pigmented tissue was completely removed from the scleral tissue. The collected tissues were pulverized under liquid nitrogen. Frozen tissue was carefully placed in a liquid nitrogen primed BioPulverizer (Biospec Products Inc, Bartlesville, Okla.). Following pulverization the tissue powder was removed from the pulverizer and transferred into a polypropylene tube. Extraction buffer (50% methanol/50% 0.5 M HCl) was added to tissue powder followed by two cycles of sonication, centrifugation, and supernatant collection. Tissue homogenate supernatant was pooled and frozen on dry ice then stored at −80° C. until drug analysis. The extraction efficacy of this methodology was assumed to be 100% for calculation purposes.
Plasma samples and eye tissue extracts were analyzed for pazopanib using a validated analytical method based on protein precipitation, followed by HPLC/MS/MS analysis, Using 50 μl aliquot of plasma and eye tissue extract, the lower limit of quantification of pazopanib was 1 ng/ml for plasma and 10 ng/ml for eye tissue extract. The higher limit of quantification was 500 ng/ml for plasma and 5000 ng/ml for eye tissue extracts. The computer systems that were used on these studies to acquire and quantify data included Analyst Version 1.4,1 and SMS2000 Version 1.6. Plasma sample concentrations were expressed as ng pazopanib/ml. Tissue concentrations were determined by the following formula: Pazopanib ng/g tissue=([concentration in supernatant ng/ml*extract volume ml]/tissue weight g).

Series [3] relates to experimental CNV (choroidal neovascularization) leakage. The series is described as follows: Fluorescence angiography in experimental laser-induced CNV. It counts as in vivo, Brown Norway rats. Here is the method: as §1, §2
Aiming to document treatment of CNV in its early stage, a treatment schedule was used as follows. Laser photocoagulation was carried out as described above, and pazopanib was applied twice a day topically from post laser day 6 until study end on post laser day 14. Coagulated lesions were first documented by angiography on day 7 post laser, and only rats with ocular CNV were included in the analysis. Sodium fluorescein was injected into tail vein of the anesthetized rats and fluorescein angiograms were obtained by means of a fundus camera (FD-31A, Topcon, Tokyo, Japan). On day 14, rats underwent a second angiography. Angiograms taken 100 to 140 seconds after injection were converted to digital images, and areas of fluorescein leakage with intensity as high as in major vessels were quantified in a masked fashion BY two of us (YY; XMY) using a computer software (NIH image, Research Service Branch, Bethesda, Md.). Differences in fluorescence were calculated by the following formula:
Area of fluorescein leakage on day 14×100%/area of fluorescein leakage on day 7.

[4] abbreviates: single 60-μL topical dose 0.3 mg.
[5] abbreviates: single 60-μL topical dose 0.3 mg, 2 h.

Read-outs that look alike come from different tables or passages of the source. Some results are limits rather than exact numbers.

The record followed here is patent publication US20130012531A1, “TREATMENT METHOD” (priority 2010, published 2013).

As to `Cc1ccc(Nc2nccc(N(C)c3ccc4c(C)n(C)nc4c3)n2)cc1S(N)(=O)=O` [pazopanib, 5-[[4-[(2,3-dimethyl-2H-indazol-6-yl)methylamino]-2-pyrimidinyl]amino]-2-methylbenzenesulfonamide], in series [1] (setting [4]), the “time of choroid peak level” value came out at 8 h, the “time of highest concentration in blood” value is recorded as 1 h, the “time of highest concentration in plasma” value was determined as 2 h and the “time of retina peak level” value is 4 h. Moreover, the “highest concentration of radioactivity in blood” value in series [1] (single 60-μL topical dose 0.3 mg to right eye, at 1 h) stood at 11.3 ng eq/g. Besides, the “highest concentration of radioactivity in plasma” value in series [1] (single 60-μL topical dose 0.3 mg to right eye, at 2 h) is on record as 12,8 ng eq/g. Moreover, in series [1] (setting [5]), the “choroid level of radioactivity at 2 h” value was determined as 40.6 ng eq/g and the “retina level of radioactivity at 2 h” value stood at 9.17 ng eq/g. Besides, in series [1] (single 60-μL topical dose 0.3 mg, at 4 h), the “retina peak level of radioactivity” value is reported as 10.2 ng eq/g. Further, the “choroid peak level of radioactivity” value in series [1] (single 60-μL topical dose 0.3 mg, at 8 h) amounted to 60.1 ng eq/g. In addition, the CNV lesion area in the series with CNV lesions (eyes treated topically with pazopanib, day 14 after laser) was 7,760.3±2,312.0 μm^2. Also, in the series with CNV lesions (lasered eyes from rats treated topically in the fellow eye), the “inhibition in lesion size” value is reported as roughly 34%. In addition, in the series with CNV lesions (topically treated eyes, day 14), the “inhibition in lesion size compared to vehicle control” value is 71.7%. The concentration at 5 hours after third drop in series [2] (eye cup tissues of the fellow non-treated eye (OD), read-out: pazopanib in eye cup tissues, fellow non-treated eye (OD), mean) was found to be 159 ng/g. The concentration at 5 hours after third drop in series [2] (read-out: pazopanib in eye cup tissues (sclera, choroid, retina), treated eye (OS), mean) came to 503 ng/g. In series [2] (single 30 μl eye drop), the “plasma level after 24 hours” value is recorded as “undetectable” and the “time of peak plasma level” value was 60 min. The peak plasma level in series [2] (single 30 μl eye drop (5 mg/ml)) was roughly 300 ng/mL. Moreover, the “Area of fluorescein leakage on day 14 x 100% / area on day 7” value in series [3] (lesioned eyes whose fellow (contralateral) eye was pazopanib-treated, % of baseline day 7) turned out to be 115.24±16.72%. Further, the “development of CNV lesions (vessel leakage, fluorescence angiography)” value in series [3] (topically administered, post laser days 7 to 14, versus vehicle) is recorded as “significantly reduced”. For the same compound, the “Area of fluorescein leakage on day 14 x 100% / area on day 7” value in series [3] (topically treated eyes, twice daily 5 mg/ml eye drops, post laser day 6-14, mean±SD, baseline 100% at day 7) stood at 111.41±21.34%. The “inhibition of further lesion development” value in series [3] (twice-daily topical administration, versus vehicle control eyes) is recorded as greater than 89%.
